Results published in patent US10696687B2, “Pyrazolo fused heterocyclic compounds as ERK inhibitors” (CHANGZHOU JIEKAI PHARMATECH CO., LTD., priority 2015, dated 2020).

system: Colon cancer cells (Colo205 cell line); assay: Colo205 cell proliferation assay (MTT assay, WST-8 readout); assay type: cell-based; conditions: Homo sapiens, COLO 205, 72 hours incubation, absorbance at 450 nm, read-out: Colo 205 cell growth inhibition IC50
Description: Compounds disclosed herein were tested for the inhibition of ERK2 by a Colo205 cell proliferation assay commonly known as MTT assay. In this assay, a complete media was prepared by adding 10% fetal bovine serum to RPMI-1640 medium (Life technology). Colon cancer cells (Colo205 cell line) were added to each of 88 wells of a 96 well plate at a seeding density of 5,000 cells/well/90 μL. The cells were allowed to attach to the plate by incubating at 37° C. for 24 hours. The compound was dissolved in DMSO (SIGMA). A solution of test compound was prepared in complete media by serial dilution to obtain the following concentrations: 500 μM, 150 μM, 50 μM, 15 μM, 5 μM, 1.5 μM, 0.5 μM, 0.15 μM and 0.05 μM. The test compound solution (10 μL) was added to each of 80 cell-containing wells. The final concentrations of the compound were following: 50 μM, 15 μM, 5 μM, 1.5 μM, 0.5 μM, 0.15 μM, 0.05 μM, 0.015 μM and 0.005 μM. The final concentration of DMSO is 0.5%. To the 8 remaining cell-containing wells, only complete media (containing 0.5% DMSO) was added to form a control group in order to measure maximal proliferation. To the remaining 8 empty wells, complete media was added to for a vehicle control group in order to measure background. The plates were incubated at 37° C. for 72 hours. 10 μL WST-8 solution (DOJINDO, Cell Counting KIT-8) was added to each well. The plates were further incubated at 37° C. for 2 hours, and then read for the absorbance using a microplate reader at 450 nm.

| Compound | IC50 [µM] |
| --- | --- |
| Cc1cc(-c2n[nH]c3ncc(C(=O)N[C@@H]4CN(C)C[C@H]4c4ccccc4Cl)cc23)ccn1 [Compound 33, N-((3S,4R)-4-(2-chlorophenyl)-1-methylpyrrolidin-3-yl)-3-(2-methylpyridin-4-yl)-1H-pyrazolo[3,4-b]pyridine-5-carboxamide] | 0.052 to 10 |
| Cc1cc(-c2n[nH]c3ncc(C(=O)N[C@H]4CN(C)C[C@@H]4c4ccccc4Cl)cc23)ccn1 [Compound 34, N-((3R,4S)-4-(2-chlorophenyl)-1-methylpyrrolidin-3-yl)-3-(2-methylpyridin-4-yl)-1H-pyrazolo[3,4-b]pyridine-5-carboxamide] | 0.052 to 10 |
| Cc1cc(-c2n[nH]c3ncc(C(=O)N[C@@H]4COC[C@H]4c4ccccc4)cc23)ccn1 [Compound 35, trans-3-(2-methylpyridin-4-yl)-N-(4-phenyltetrahydrofuran-3-yl)-1H-pyrazolo[3,4-b]pyridine-5-carboxamide] | 0.052 to 10 |
| Cc1cc(-c2n[nH]c3ccc(C(=O)N[C@@H]4CN(C)C[C@H]4c4ccccc4Cl)cc23)ccn1 [Compound 37, N-((3S,4R)-4-(2-chlorophenyl)-1-methylpyrrolidin-3-yl)-3-(2-methylpyridin-4-yl)-1H-indazole-5-carboxamide] | 0.052 to 10 |
| Cc1cc(-c2n[nH]c3ccc(C(=O)N[C@@H]4CN(C)C[C@H]4c4ccccc4C(F)(F)F)cc23)ccn1 [Compound 39, N-((3S,4R)-1-methyl-4-(2-(trifluoromethyl)phenyl)pyrrolidin-3-yl)-3-(2-methylpyridin-4-yl)-1H-indazole-5-carboxamide] | 0.052 to 10 |
| Cc1cc(-c2n[nH]c3ccc(C(=O)N[C@H]4CN(C)C[C@@H]4c4ccccc4C(F)(F)F)cc23)ccn1 [Compound 41, N-((3R,4S)-1-methyl-4-(2-(trifluoromethyl)phenyl)pyrrolidin-3-yl)-3-(2-methylpyridin-4-yl)-1H-indazole-5-carboxamide] | 0.052 to 10 |
| Cc1cc(-c2n[nH]c3sc(C(=O)NC(c4ccc(F)cc4)C(C)(C)O)cc23)ccn1 (stereo not shown) [Compound 55, N-(1-(4-fluorophenyl)-2-hydroxy-2-methylpropyl)-3-(2-methylpyridin-4-yl)-1H-thieno[2,3-c]pyrazole-5-carboxamide] | 0.052 to 10 |
